Laboratory results: patent publication US20110213143A1, “COMPOUND HAVING TAFIA INHIBITORY ACTIVITY” (TAISHO PHARMACEUTICAL CO., LTD., priority 2008, published 2011)
Where a name gives a salt, the structure may show the parent alone.

Target: T1, TAFIa (Homo sapiens, UniProt Q96IY4)
T1 construct: purchased Enzyme Research Laboratories
T1 sequence (Q96IY4 115-423): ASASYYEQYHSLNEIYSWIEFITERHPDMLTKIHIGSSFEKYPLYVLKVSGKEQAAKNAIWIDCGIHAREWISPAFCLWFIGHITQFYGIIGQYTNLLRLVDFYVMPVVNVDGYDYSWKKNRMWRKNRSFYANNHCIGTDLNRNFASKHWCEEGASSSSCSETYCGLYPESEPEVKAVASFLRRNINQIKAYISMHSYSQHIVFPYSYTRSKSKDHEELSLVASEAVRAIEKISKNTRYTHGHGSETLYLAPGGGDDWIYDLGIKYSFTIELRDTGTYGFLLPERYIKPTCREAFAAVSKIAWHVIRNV
Assay: TAFIa inhibition test (Hip-Arg substrate, absorbance at 405 nm)
Format: biochemical
Details: 40 minutes at room temperature, read-out: IC50 (TAFIa inhibitory activity)
Procedure: Test 1 [TAFIa Inhibition Test]
Compounds of the present invention were measured for their TAFIa inhibitory activity as follows based on the method described in Thromb. Haemost. 371 (1988).
(a) Preparation of TAFIa Solution
To 450 μl of TAFI (the product of Enzyme Research Laboratories whose concentration was adjusted to 18 μg/ml with buffer A: 100 mM Tris-HCl buffer, pH 7.4), 45 μl of a thrombomodulin solution (a rabbit lung derived thrombomodulin produced by American Diagnostia whose concentration was adjusted to 1 μg/ml with buffer B: 50 mM Tris-HCl, pH 7.5, containing 0.15 M NaCl) and 45 μl of a thrombin solution (a freeze-dried human plasma derived thrombin produced by Sigma and dissolved in water to have a concentration of 30 μ/ml) were added and the mixture was left to stand for 25 minutes at room temperature.
(b) Method of Measuring TAFIa Inhibitory Activity
To wells on a 96-well microplate, the above-prepared TAFIa solution, a test compound, and a substrate solution (Hip-Arg produced by Sigma and dissolved in buffer C of 100 mM Tris-HCl buffer, pH 8.3, to have a concentration of 3.6 mM) were added in respective amounts of 20 μl/well, 10 μl/well, and 70 μl/well. The individual components were mixed well and the reaction was carried out for 40 minutes at room temperature.
Subsequently, a color former (1% cyanuric chloride in 1,4-dioxane) was added in an amount of 50 μl to each well and the plate was left to stand for 3 minutes at room temperature; then, the absorbance at 405 nm was measured with a microplate reader (Spectramax M2 of Molecular Devices). With the absorbance in the absence of a test compound minus the absorbance in the absence of an enzyme being taken as 100%, the concentration of the compound that inhibited 50% of the reaction (IC50) was calculated from the absorbance in the presence of the test compound minus the absorbance in the absence of the enzyme.
For several compounds of the present invention, the above test was conducted and on the basis of the results of measurements, TAFIa inhibitory activity was calculated to give the results shown in Table 2.

## NCCCC(Cc1ncn2c1CCc1ccccc1-2)C(=O)O (stereo not drawn) [Example 1, 5-amino-2-(4,5-dihydroimidazo[1,5-a]quinolin-3-ylmethyl)pentanoic acid]
  IC50: 95 nM

## NCCC[C@@H](Cc1ncn2c1CCc1ccccc1-2)C(=O)O [Example 2, (2S)-5-amino-2-(4,5-dihydroimidazo[1,5-a]quinolin-3-ylmethyl)pentanoic acid]
  IC50: 63 nM

## NCCC[C@H](Cc1ncn2c1CCc1ccccc1-2)C(=O)O [Example 3, (2R)-5-amino-2-(4,5-dihydroimidazo[1,5-a]quinolin-3-ylmethyl)pentanoic acid]
  IC50: 860 nM

## NCCCC(Cc1ncn2c1CCCc1ccccc1-2)C(=O)O (stereo not drawn) [Example 4, 5-amino-2-(5,6-dihydro-4H-imidazo[1,5-a] [1]benzazepin-3-ylmethyl)pentanoic acid]
  IC50: 3300 nM

## NCCCC(Cc1ncn2c1COc1ccccc1-2)C(=O)O (stereo not drawn) [Example 5, 5-amino-2-(4H-imidazo[5,1-c][1,4]benzoxazin-3-ylmethyl)pentanoic acid]
  IC50: 1100 nM

## NCCCC(Cc1ncn2c1CCc1ccncc1-2)C(=O)O (stereo not drawn) [Example 6, 5-amino-2-(4,5-dihydroimidazo[1,5-a] [1,7]naphthyridin-3-ylmethyl)pentanoic acid]
  IC50: 1600 nM

## Cc1cccc2c1-n1cnc(CC(CCCN)C(=O)O)c1CC2 (stereo not drawn) [Example 7, 5-amino-2-[(9-methyl-4,5-dihydroimidazo[1,5-a]quinolin-3-yl)methyl]pentanoic acid dihydrochloride]
  IC50: 6400 nM

## CCc1cccc2c1CCc1c(CC(CCCN)C(=O)O)ncn1-2 (stereo not drawn) [Example 8, 5-amino-2-[(6-ethyl-4,5-dihydroimidazo[1,5-a]quinolin-3-yl)methyl]pentanoic acid]
  IC50: 270 nM

## NCCCC(Cc1ncn2c1CCc1c(Cl)cccc1-2)C(=O)O (stereo not drawn) [Example 9, 5-amino-2-[(6-chloro-4,5-dihydroimidazo[1,5-a]quinolin-3-yl)methyl]pentanoic acid]
  IC50: 190 nM

## Cc1cccc2c1CCc1c(CC(CCCN)C(=O)O)ncn1-2 (stereo not drawn) [Example 10, 5-amino-2-[(6-methyl-4,5-dihydroimidazo[1,5-a]quinolin-3-yl)methyl]pentanoic acid]
  IC50: 150 nM

## Cc1ccc2c(c1)CCc1c(CC(CCCN)C(=O)O)ncn1-2 (stereo not drawn) [Example 11, 5-amino-2-[(7-methyl-4,5-dihydroimidazo[1,5-a]quinolin-3-yl)methyl]pentanoic acid dihydrochloride]
  IC50: 61 nM

## Cc1ccc2c(c1)-n1cnc(CC(CCCN)C(=O)O)c1CC2 (stereo not drawn) [Example 12, 5-amino-2-[(8-methyl-4,5-dihydroimidazo[1,5-a]quinolin-3-yl)methyl]pentanoic acid]
  IC50: 1800 nM

## NCCCCC(C(=O)O)c1ncn2c1CCc1ccccc1-2 (stereo not drawn) [Example 13, 6-amino-2-(4,5-dihydroimidazo[1,5-a]quinolin-3-yl)hexanoic acid]
  IC50: 3300 nM

## CCOc1ccc2c(c1)CCc1c(CC(CCCN)C(=O)O)ncn1-2 (stereo not drawn) [Example 14, 5-amino-2-[(7-ethoxy-4,5-dihydroimidazo[1,5-a]quinolin-3-yl)methyl]pentanoic acid]
  IC50: 110 nM

## NCCCC(Cc1ncn2c1CCc1cc(-c3ccccc3)ccc1-2)C(=O)O (stereo not drawn) [Example 15, 5-amino-2-[(7-phenyl-4,5-dihydroimidazo[1,5-a]quinolin-3-yl)methyl]pentanoic acid dihydrochloride]
  IC50: 140 nM

## NCCCC(Cc1ncn2c1CCc1cc(OC3CCCCC3)ccc1-2)C(=O)O (stereo not drawn) [Example 16, 5-amino-2-{[7-(cyclohexyloxy)-4,5-dihydroimidazo[1,5-a]quinolin-3-yl)methyl]pentanoic acid]
  IC50: 180 nM

## CCCc1ccc2c(c1)CCc1c(CC(CCCN)C(=O)O)ncn1-2 (stereo not drawn) [Example 17, 5-amino-2-[(7-propyl-4,5-dihydroimidazo[1,5-a]quinolin-3-yl)methyl]pentanoic acid dihydrochloride]
  IC50: 67 nM

## NCCCC(Cc1ncn2c1CNc1ccccc1-2)C(=O)O (stereo not drawn) [Example 18, 5-amino-2-(4,5-dihydroimidazo[1,5-a]quinoxalin-3-ylmethyl)pentanoic acid]
  IC50: 630 nM

## NCCCC(Cc1ncn2c1CCc1ncccc1-2)C(=O)O (stereo not drawn) [Example 19, 5-amino-2-(4,5-dihydroimidazo[1,5-a] [1,5]naphthyridin-3-ylmethyl)pentanoic acid]
  IC50: 580 nM

## CNCCCC(Cc1ncn2c1CCc1ccccc1-2)C(=O)O (stereo not drawn) [Example 20, 2-(4,5-dihydroimidazo[1,5-a]quinolin-3-ylmethyl)-5-(methylamino)pentanoic acid]
  IC50: 2300 nM

## NCCCC(Cc1ncn2c1Cc1ccccc1C2)C(=O)O (stereo not drawn) [Example 21, 5-amino-2-(5,10-dihydroimidazo[1,5-b]isoquinolin-1-ylmethyl)pentanoic acid]
  IC50: 1400 nM

## Nc1cc(C(Cc2ncn3c2CCc2ccccc2-3)C(=O)O)ccn1 (stereo not drawn) [Example 22, 2-(2-aminopyridin-4-yl)-3-(4,5-dihydroimidazo[1,5-a]quinolin-3-yl)propanoic acid dihydrochloride]
  IC50: 5100 nM

## NCCCC(Cc1ncn2c1CCc1ccccc1-2)c1nnn[nH]1 (stereo not drawn) [Example 23, 5-(4,5-dihydroimidazo[1,5-a]quinolin-3-yl)-4-(1H-tetrazol-5-yl)pentan-1-amine]
  IC50: 4400 nM

## NCCC[C@@H](Cc1ncn2c1CCc1cc(CCC3CCCCC3)ccc1-2)C(=O)O [Example 24, (25)-5-amino-2-{[7-(2-cyclohexylethyl)-4,5-dihydroimidazo[1,5-a]quinolin-3-yl]methyl}pentanoic acid dihydrochloride]
  IC50: 43 nM

## NCCC[C@@H](Cc1ncn2c1CCc1cc(C3CCCCC3)ccc1-2)C(=O)O [Example 25, (2S)-5-amino-2-[(7-cyclohexyl-4,5-dihydroimidazo[1,5-a]quinolin-3-yl)methyl]pentanoic acid dihydrochloride]
  IC50: 28 nM

## NCCC[C@@H](Cc1ncn2c1CCc1cc(F)ccc1-2)C(=O)O [Example 26, (2S)-5-amino-2-[(7-fluoro-4,5-dihydroimidazo[1,5-a]quinolin-3-yl]methyl}pentanoic acid dihydrochloride]
  IC50: 72 nM

## NCCCC(Cc1ncn2c1CCc1cc(C(F)(F)F)ccc1-2)C(=O)O (stereo not drawn) [Example 27, 5-amino-2-{[7-(trifluoromethyl)-4,5-dihydroimidazo[1,5-a]quinolin-3-yl]methyl}pentanoic acid dihydrochloride]
  IC50: 410 nM

## CC(C)c1ccc2c(c1)CCc1c(C[C@H](CCCN)C(=O)O)ncn1-2 [Example 28, (2S)-5-amino-2-[(7-isopropyl-4,5-dihydroimidazo[1,5-a]quinolin-3-yl)methyl]pentanoic acid dihydrochloride]
  IC50: 33 nM

## Cc1ccc2c(c1)CCc1c(C[C@H](CCCN)C(=O)O)ncn1-2 [Example 29, (2S)-5-amino-2-[(7-methyl-4,5-dihydroimidazo[1,5-a]quinolin-3-yl)methyl]pentanoic acid dihydrochloride]
  IC50: 25 nM

## CCCc1ccc2c(c1)CCc1c(C[C@H](CCCN)C(=O)O)ncn1-2 [Example 30, (S)-5-amino-2-((7-propyl-4,5-dihydroimidazo[1,5-a]quinolin-3-yl)methyl)pentanoic acid dihydrochloride]
  IC50: 28 nM
